Data published in ChEMBL document CHEMBL5518226, “A Vancomycin-Templated DNA-Encoded Library for Combating Drug-Resistant Bacteria” (2024).
In brackets after ≈: the same amount, converted by molar mass.

What was measured:
Type in all cases: functional
Staphylococcus aureus [1] = assay: Antibacterial activity against methicillin sensitive Staphylococcus aureus ATCC29213 assessed as inhibition of bacterial growth incubated for 24 hrs by CLSI protocol based broth microdilution method
Staphylococcus aureus [2] = assay: Antibacterial activity against vancomycin-intermediate resistant Staphylococcus aureus ATCC700699 assessed as inhibition of bacterial growth incubated for 24 hrs by CLSI protocol based broth microdilution method
Staphylococcus aureus [3] = assay: Antibacterial activity against methicillin resistant Staphylococcus aureus clinical isolate 20-34 assessed as inhibition of bacterial growth incubated for 24 hrs by CLSI protocol based broth microdilution method
Enterococcus faecalis [4] = assay: Antibacterial activity against vancomycin resistant Enterococcus faecalis clinical isolate 20-1 assessed as inhibition of bacterial growth incubated for 24 hrs by CLSI protocol based broth microdilution method
Enterococcus faecium [5] = assay: Antibacterial activity against vancomycin-resistant Enterococcus faecium 0649 assessed as reduction in bacterial growth by measuring fold change at 0.0625 to 64 ug/ml incubated for 24 hrs by CLSI protocol based broth microdilution method relative to vancomycin; settings: dose 0.0625-64 µg/ml
Streptococcus pneumoniae [6] = assay: Antibacterial activity against Streptococcus pneumoniae ATCC49619 assessed as inhibition of bacterial growth incubated for 24 hrs by CLSI protocol based broth microdilution method
[7] = tested on: Staphylococcus epidermidis; assay: Antibacterial activity against methicillin sensitive Staphylococcus epidermidis clinical isolate 20-1 assessed as inhibition of bacterial growth incubated for 24 hrs by CLSI protocol based broth microdilution method
Enterococcus faecium [8] = assay: Antibacterial activity against Enterococcus faecium clinical isolate 20-15 assessed as inhibition of bacterial growth incubated for 24 hrs by CLSI protocol based broth microdilution method
Enterococcus faecalis [9] = assay: Antibacterial activity against Enterococcus faecalis clinical isolate 20-11 assessed as inhibition of bacterial growth incubated for 24 hrs by CLSI protocol based broth microdilution method
Staphylococcus aureus [10] = assay: Antibacterial activity against methicillin resistant Staphylococcus aureus USA300 assessed as inhibition of bacterial growth incubated for 24 hrs by CLSI protocol based broth microdilution method
Enterococcus faecium [11] = assay: Antibacterial activity against Enterococcus faecium clinical isolate 20-16 assessed as inhibition of bacterial growth incubated for 24 hrs by CLSI protocol based broth microdilution method
Staphylococcus aureus [12] = assay: Antibacterial activity against methicillin sensitive Staphylococcus aureus Newman assessed as inhibition of bacterial growth incubated for 24 hrs by CLSI protocol based broth microdilution method
Staphylococcus aureus [13] = assay: Antibacterial activity against vancomycin-intermediate resistant Staphylococcus aureus Mu50 assessed as reduction in bacterial growth by measuring fold change at 0.0625 to 64 ug/ml incubated for 24 hrs by CLSI protocol based broth microdilution method relative to vancomycin; settings: dose 0.0625-64 µg/ml
Staphylococcus aureus [14] = assay: Antibacterial activity against methicillin sensitive Staphylococcus aureus clinical isolate 20-45 assessed as inhibition of bacterial growth incubated for 24 hrs by CLSI protocol based broth microdilution method
Streptococcus pneumoniae [15] = assay: Antibacterial activity against penicillin susceptible Streptococcus pneumoniae clinical isolate 20-1 assessed as inhibition of bacterial growth incubated for 24 hrs by CLSI protocol based broth microdilution method
[16] = tested on: Staphylococcus epidermidis; assay: Antibacterial activity against methicillin resistant Staphylococcus epidermidis clinical isolate 20-1 assessed as inhibition of bacterial growth incubated for 24 hrs by CLSI protocol based broth microdilution method

Row | Compound | MIC (Staphylococcus aureus [1]) [µg/mL] | MIC (Staphylococcus aureus [2]) [µg/mL] | MIC (Staphylococcus aureus [3]) [µg/mL] | MIC (Enterococcus faecalis [4]) [µg/mL] | fold change (FC) (Enterococcus faecium [5]) | MIC (Streptococcus pneumoniae [6]) [µg/mL] | MIC [7] [µg/mL] | MIC (Enterococcus faecium [8]) [µg/mL] | MIC (Enterococcus faecalis [9]) [µg/mL] | MIC (Staphylococcus aureus [10]) [µg/mL] | MIC (Enterococcus faecium [11]) [µg/mL] | MIC (Staphylococcus aureus [12]) [µg/mL] | fold change (FC) (Staphylococcus aureus [13]) | MIC (Staphylococcus aureus [14]) [µg/mL] | MIC (Streptococcus pneumoniae [15]) [µg/mL] | MIC [16] [µg/mL]
1 | CN[C@H](CC(C)C)C(=O)N[C@H]1C(=O)N[C@@H](CC(N)=O)C(=O)N[C@H]2C(=O)N[C@H]3C(=O)N[C@H](C(=O)N[C@H](C(=O)O)c4cc(O)cc(O)c4-c4cc3ccc4O)[C@H](O)c3ccc(c(Cl)c3)Oc3cc2cc(c3O[C@@H]2O[C@H](CO)[C@@H](O)[C@H](O)[C@H]2O[C@H]2C[C@](C)(NCc3ccc(C#Cc4ccccc4)cc3)[C@H](O)[C@H](C)O2)Oc2ccc(cc2Cl)[C@H]1O | ≤ 0.015 | 0.125 (≈ 0.0762 µM) | 1 (≈ 0.61 µM) | 4 (≈ 2.44 µM) | 16 | ≤ 0.015 | ≤ 0.015 | ≤ 0.015 | ≤ 0.015 | ≤ 0.06 | ≤ 0.015 | ≤ 0.06 | 8 | ≤ 0.015 | ≤ 0.015 | –
2 | CN[C@H](CC(C)C)C(=O)N[C@H]1C(=O)N[C@@H](CC(N)=O)C(=O)N[C@H]2C(=O)N[C@H]3C(=O)N[C@H](C(=O)N[C@H](C(=O)O)c4cc(O)cc(O)c4-c4cc3ccc4O)[C@H](O)c3ccc(c(Cl)c3)Oc3cc2cc(c3O[C@@H]2O[C@H](CO)[C@@H](O)[C@H](O)[C@H]2O[C@H]2C[C@](C)(NCc3ccc(-c4ccccc4)s3)[C@H](O)[C@H](C)O2)Oc2ccc(cc2Cl)[C@H]1O | – | – | – | – | 16 | – | – | – | – | – | – | – | 8 | – | – | –
3 | CN[C@H](CC(C)C)C(=O)N[C@H]1C(=O)N[C@@H](CC(N)=O)C(=O)N[C@H]2C(=O)N[C@H]3C(=O)N[C@H](C(=O)N[C@H](C(=O)O)c4cc(O)cc(O)c4-c4cc3ccc4O)[C@H](O)c3ccc(c(Cl)c3)Oc3cc2cc(c3O[C@@H]2O[C@H](CO)[C@@H](O)[C@H](O)[C@H]2O[C@H]2C[C@](C)(NCc3ccc(-c4ccc(C(F)(F)F)cc4)cc3)[C@H](O)[C@H](C)O2)Oc2ccc(cc2Cl)[C@H]1O | – | – | – | – | 16 | – | – | – | – | – | – | – | 8 | – | – | –
4 | CN[C@H](CC(C)C)C(=O)N[C@H]1C(=O)N[C@@H](CC(N)=O)C(=O)N[C@H]2C(=O)N[C@H]3C(=O)N[C@H](C(=O)N[C@H](C(=O)O)c4cc(O)cc(O)c4-c4cc3ccc4O)[C@H](O)c3ccc(c(Cl)c3)Oc3cc2cc(c3O[C@@H]2O[C@H](CO)[C@@H](O)[C@H](O)[C@H]2O[C@H]2C[C@](C)(NCCCc3cn(-c4cccc(NC(=O)OC(C)(C)C)c4)nn3)[C@H](O)[C@H](C)O2)Oc2ccc(cc2Cl)[C@H]1O | – | – | – | – | 8 | – | – | – | – | – | – | – | 8 | – | – | –
5 | CN[C@H](CC(C)C)C(=O)N[C@H]1C(=O)N[C@@H](CC(N)=O)C(=O)N[C@H]2C(=O)N[C@H]3C(=O)N[C@H](C(=O)N[C@H](C(=O)O)c4cc(O)cc(O)c4-c4cc3ccc4O)[C@H](O)c3ccc(c(Cl)c3)Oc3cc2cc(c3O[C@@H]2O[C@H](CO)[C@@H](O)[C@H](O)[C@H]2O[C@H]2C[C@](C)(NCc3ccc(Oc4cc(Cl)cc(Cl)c4)cc3)[C@H](O)[C@H](C)O2)Oc2ccc(cc2Cl)[C@H]1O | ≤ 0.015 | 0.125 (≈ 0.0735 µM) | – | 4 (≈ 2.35 µM) | 16 | ≤ 0.015 | ≤ 0.015 | ≤ 0.015 | ≤ 0.015 | ≤ 0.06 | 0.03 (≈ 0.0176 µM) | ≤ 0.06 | 8 | ≤ 0.015 | ≤ 0.015 | –
6 | CN[C@H](CC(C)C)C(=O)N[C@H]1C(=O)N[C@@H](CC(N)=O)C(=O)N[C@H]2C(=O)N[C@H]3C(=O)N[C@H](C(=O)N[C@H](C(=O)O)c4cc(O)cc(O)c4-c4cc3ccc4O)[C@H](O)c3ccc(c(Cl)c3)Oc3cc2cc(c3O[C@@H]2O[C@H](CO)[C@@H](O)[C@H](O)[C@H]2O[C@H]2C[C@](C)(NCc3ccc(Cl)cc3Cl)[C@H](O)[C@H](C)O2)Oc2ccc(cc2Cl)[C@H]1O | – | – | – | – | 8 | – | – | – | – | – | – | – | – | – | – | –
7 | CN[C@H](CC(C)C)C(=O)N[C@H]1C(=O)N[C@@H](CC(N)=O)C(=O)N[C@H]2C(=O)N[C@H]3C(=O)N[C@H](C(=O)N[C@H](C(=O)O)c4cc(O)c(CN(C)Cc5cn(-c6cccc(NC(=O)OC(C)(C)C)c6)nn5)c(O)c4-c4cc3ccc4O)[C@H](O)c3ccc(c(Cl)c3)Oc3cc2cc(c3O[C@@H]2O[C@H](CO)[C@@H](O)[C@H](O)[C@H]2O[C@H]2C[C@](C)(NCc3cccc(-c4cc(F)ccc4F)n3)[C@H](O)[C@H](C)O2)Oc2ccc(cc2Cl)[C@H]1O | – | – | – | – | 8 | – | – | – | – | – | – | – | – | – | – | –
8 | CN[C@H](CC(C)C)C(=O)N[C@H]1C(=O)N[C@@H](CC(N)=O)C(=O)N[C@H]2C(=O)N[C@H]3C(=O)N[C@H](C(=O)N[C@H](C(=O)O)c4cc(O)c(CN(C)Cc5cn(-c6cccc(NC(=O)OC(C)(C)C)c6)nn5)c(O)c4-c4cc3ccc4O)[C@H](O)c3ccc(c(Cl)c3)Oc3cc2cc(c3O[C@@H]2O[C@H](CO)[C@@H](O)[C@H](O)[C@H]2O[C@H]2C[C@](C)(NCc3ccccc3-c3ccccc3)[C@H](O)[C@H](C)O2)Oc2ccc(cc2Cl)[C@H]1O | – | – | – | – | 8 | – | – | – | – | – | – | – | – | – | – | –
9 | CN[C@H](CC(C)C)C(=O)N[C@H]1C(=O)N[C@@H](CC(N)=O)C(=O)N[C@H]2C(=O)N[C@H]3C(=O)N[C@H](C(=O)N[C@H](C(=O)O)c4cc(O)c(CN(C)Cc5cn(-c6cccc(NC(=O)OC(C)(C)C)c6)nn5)c(O)c4-c4cc3ccc4O)[C@H](O)c3ccc(c(Cl)c3)Oc3cc2cc(c3O[C@@H]2O[C@H](CO)[C@@H](O)[C@H](O)[C@H]2O[C@H]2C[C@](C)(NCc3ccccc3Oc3ccccc3)[C@H](O)[C@H](C)O2)Oc2ccc(cc2Cl)[C@H]1O | – | – | – | – | 8 | – | – | – | – | – | – | – | – | – | – | –
10 | CN[C@H](CC(C)C)C(=O)N[C@H]1C(=O)N[C@@H](CC(N)=O)C(=O)N[C@H]2C(=O)N[C@H]3C(=O)N[C@H](C(=O)N[C@H](C(=O)O)c4cc(O)cc(O)c4-c4cc3ccc4O)[C@H](O)c3ccc(c(Cl)c3)Oc3cc2cc(c3O[C@@H]2O[C@H](CO)[C@@H](O)[C@H](O)[C@H]2O[C@H]2C[C@](C)(NCCCc3cn(Cc4ccc(Cl)c(Cl)c4)nn3)[C@H](O)[C@H](C)O2)Oc2ccc(cc2Cl)[C@H]1O | ≤ 0.03 | 0.125 (≈ 0.0728 µM) | – | 4 (≈ 2.33 µM) | 8 | ≤ 0.03 | ≤ 0.03 | ≤ 0.03 | ≤ 0.03 | ≤ 0.015 | ≤ 0.03 | ≤ 0.015 | 8 | ≤ 0.03 | ≤ 0.03 | 0.06 (≈ 0.0349 µM)
11 | CN[C@H](CC(C)C)C(=O)N[C@H]1C(=O)N[C@@H](CC(N)=O)C(=O)N[C@H]2C(=O)N[C@H]3C(=O)N[C@H](C(=O)N[C@H](C(=O)O)c4cc(O)cc(O)c4-c4cc3ccc4O)[C@H](O)c3ccc(c(Cl)c3)Oc3cc2cc(c3O[C@@H]2O[C@H](CO)[C@@H](O)[C@H](O)[C@H]2O[C@H]2C[C@](C)(NCc3ccc(Oc4ccccc4)cc3)[C@H](O)[C@H](C)O2)Oc2ccc(cc2Cl)[C@H]1O | ≤ 0.03 | 0.5 (≈ 0.306 µM) | – | 8 (≈ 4.9 µM) | 16 | ≤ 0.03 | 0.125 (≈ 0.0766 µM) | ≤ 0.03 | ≤ 0.03 | ≤ 0.06 | ≤ 0.03 | ≤ 0.06 | 8 | ≤ 0.03 | ≤ 0.03 | 0.25 (≈ 0.153 µM)
12 | CN[C@H](CC(C)C)C(=O)N[C@H]1C(=O)N[C@@H](CC(N)=O)C(=O)N[C@H]2C(=O)N[C@H]3C(=O)N[C@H](C(=O)N[C@H](C(=O)O)c4cc(O)cc(O)c4-c4cc3ccc4O)[C@H](O)c3ccc(c(Cl)c3)Oc3cc2cc(c3O[C@@H]2O[C@H](CO)[C@@H](O)[C@H](O)[C@H]2O[C@H]2C[C@](C)(NCCCc3cn(-c4ccc(OC(F)F)cc4)nn3)[C@H](O)[C@H](C)O2)Oc2ccc(cc2Cl)[C@H]1O | – | – | – | – | 8 | – | – | – | – | – | – | – | 8 | – | – | –
13 | CN[C@H](CC(C)C)C(=O)N[C@H]1C(=O)N[C@@H](CC(N)=O)C(=O)N[C@H]2C(=O)N[C@H]3C(=O)N[C@H](C(=O)N[C@H](C(=O)O)c4cc(O)cc(O)c4-c4cc3ccc4O)[C@H](O)c3ccc(c(Cl)c3)Oc3cc2cc(c3O[C@@H]2O[C@H](CO)[C@@H](O)[C@H](O)[C@H]2O[C@H]2C[C@](C)(NCCCc3cn(C4CN(C(c5ccccc5)c5ccccc5)C4)nn3)[C@H](O)[C@H](C)O2)Oc2ccc(cc2Cl)[C@H]1O | ≤ 0.03 | 0.5 (≈ 0.281 µM) | – | 8 (≈ 4.5 µM) | 8 | ≤ 0.03 | ≤ 0.03 | ≤ 0.03 | 0.06 (≈ 0.0337 µM) | ≤ 0.015 | ≤ 0.03 | ≤ 0.015 | 8 | ≤ 0.03 | ≤ 0.03 | –
